Legend:
[1] = target: T1, TAK1 (Homo sapiens, UniProt O43318); test: TAK1 LanthaScreen Eu Kinase Binding Assay (Invitrogen; Table 1 calls it TAK1 enzymatic assay); conditions: for IC50: read-out: IC50 against TAK1; for TAK1 potency, SAR result in words: Table 1 SAR discussion
T1 construct: purchased Invitrogen (Thermo Fisher Scientific)
T1 sequence (O43318 with tags, fused parts or gaps limits assumed): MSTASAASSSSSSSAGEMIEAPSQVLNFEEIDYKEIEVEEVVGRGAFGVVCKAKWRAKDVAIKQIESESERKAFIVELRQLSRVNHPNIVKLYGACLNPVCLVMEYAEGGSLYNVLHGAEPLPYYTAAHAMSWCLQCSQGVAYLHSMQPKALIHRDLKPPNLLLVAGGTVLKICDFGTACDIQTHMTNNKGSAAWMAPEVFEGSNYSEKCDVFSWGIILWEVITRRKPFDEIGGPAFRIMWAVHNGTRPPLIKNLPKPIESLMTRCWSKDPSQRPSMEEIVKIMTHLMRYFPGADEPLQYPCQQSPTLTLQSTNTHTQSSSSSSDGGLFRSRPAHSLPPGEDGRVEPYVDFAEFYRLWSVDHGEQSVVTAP
Procedure: Kinase assays were performed by Invitrogen (now Thermo Fisher Scientific, Waltham, MA) or Reaction Biology Corp. (Malvern, PA). Inhibitory activity of compounds for TAK1 was evaluated using LanthaScreen® Eu Kinase Binding Assay (Invitrogen, Waltham, MA). The kinase profile of compound 13h was determined by the kinase HotSpot Profiling service of Reaction Biology Corporation. All assays were performed at Km for ATP.
Table 1. TAK1 enzymatic assay with imidazopyridine derivatives. ^a In-vitro enzymatic assay data obtained from Invitrogen^TM.

[2] = tested on: MDA-MB-231 cells; test: Caspase-3/7 assay (Apo-ONE); format: cell-based; conditions: 10 µM, presence of TNFα (10 ng/ml), 24 h, MDA-MB-231, positive control
Procedure: MDA-MB-231 cells were obtained from the Korean Cell Line Bank. Cells were cultured in Roswell Park Memorial Institute (RPMI) 1640 medium containing 10% foetal bovine serum and 1% penicillin/streptomycin at 37 °C with 5% CO2 under humidified atmosphere.
The assay was performed using Apo-ONE® Homogeneous Caspase-3/7 Assay kits (Catalogue No. G7790, Promega, Madison, WI). MDA-MB-231 cells in a concentration of 5000 cells/100 µl were seeded in each well of a black 96-well plate and starved after adhering to the plate. The cells were incubated for 24 h, and the serum-starved cells were treated with either Takinib or 13h in the presence or absence of TNFα (10 ng/ml). All samples and the control contained DMSO in a final concentration of 0.5%. After another 24 h of incubation, 100 µL of Apo-ONE® caspase-3/7 reagent was added to each well, and the cells were incubated at room temperature in darkness for 2 h. Fluorescence was then measured at 530 nm with excitation at 485 nm using a FlexStation 3 Multi-Mode microplate reader (Molecular Devices). Statistical analyses of the data included a one-way ANOVA, followed by Tukey’s multiple comparison test.

| Compound | TAK1 potency, SAR result in words [1] | also measured |
| --- | --- | --- |
| C=CC(=O)N[C@@H]1CCN(c2nc(Nc3ccc(N4CCN(C)CC4)cc3)ncc2Cl)C1 [Compound 6] |  | IC50 [1]: 0.413 µM |
| CN1CCN(c2ccc(-c3nc4c(N5CC[C@@H](NC(=O)/C(C#N)=C/c6ccccc6)C5)c(Cl)cnc4[nH]3)cc2)CC1 [Compound 13a, (R,E)-N-(1-(6-chloro-2-(4-(4-methylpiperazin-1-yl)phenyl)-3H-imidazo[4,5-b]pyridin-7-yl)pyrrolidin-3-yl)-2-cyano-3-phenylacrylamide] |  | IC50 fold lower than the IC50 of 14 ([1]; TAK1, compared with 14): ~2.5 fold; IC50 [1]: 0.385 µM |
| Cc1csc(/C=C(\C#N)C(=O)N[C@@H]2CCN(c3c(Cl)cnc4[nH]c(-c5ccc(N6CCN(C)CC6)cc5)nc34)C2)n1 [Compound 13b, (R,E)-N-(1-(6-chloro-2-(4-(4-methylpiperazin-1-yl)phenyl)-3H-imidazo[4,5-b]pyridin-7-yl)pyrrolidin-3-yl)-2-cyano-3-(4-methylthiazol-2-yl)acrylamide] | highest potency |  |
| CN1CCN(c2ccc(-c3nc4c(N5CC[C@@H](NC(=O)/C(C#N)=C/c6cccc(F)n6)C5)c(Cl)cnc4[nH]3)cc2)CC1 [Compound 13f, (R,E)-N-(1-(6-chloro-2-(4-(4-methylpiperazin-1-yl)phenyl)-3H-imidazo[4,5-b]pyridin-7-yl)pyrrolidin-3-yl)-2-cyano-3–(6-fluoropyridin-2-yl)acrylamide] | maintained or improved potency |  |
| CN1CCN(c2ccc(-c3nc4c(N5CC[C@@H](NC(=O)/C(C#N)=C/c6cccc(Cl)n6)C5)c(Cl)cnc4[nH]3)cc2)CC1 [Compound 13g, (R,E)-N-(1–(6-chloro-2–(4–(4-methylpiperazin-1-yl)phenyl)-3H-imidazo[4,5-b]pyridin-7-yl)pyrrolidin-3-yl)-3-(6-chloropyridin-2-yl)-2-cyanoacrylamide] | increased |  |
| CN1CCN(c2ccc(-c3nc4c(N5CC[C@@H](NC(=O)/C(C#N)=C/c6cccc(C7CC7)n6)C5)c(Cl)cnc4[nH]3)cc2)CC1 [Compound 13i, (R,E)-N-(1–(6-chloro-2–(4-(4-methylpiperazin-1-yl)phenyl)-3H-imidazo[4,5-b]pyridin-7-yl)pyrrolidin-3-yl)-2-cyano-3-(6-cyclopropylpyridin-2-yl)acrylamide] | increased |  |
| Cc1ccc(/C=C(\C#N)C(=O)N[C@@H]2CCN(c3c(Cl)cnc4[nH]c(-c5ccc(N6CCN(C)CC6)cc5)nc34)C2)nc1 [Compound 13j, (R,E)-N-(1–(6-chloro-2–(4-(4-methylpiperazin-1-yl)phenyl)-3H-imidazo[4,5-b]pyridin-7-yl)pyrrolidin-3-yl)-2-cyano-3-(5-methylpyridin-2-yl)acrylamide] | excellent |  |
| COc1ccc(/C=C(\C#N)C(=O)N[C@@H]2CCN(c3c(Cl)cnc4[nH]c(-c5ccc(N6CCN(C)CC6)cc5)nc34)C2)nc1 [Compound 13k, (R,E)-N-(1–(6-chloro-2–(4-(4-methylpiperazin-1-yl)phenyl)-3H-imidazo[4,5-b]pyridin-7-yl)pyrrolidin-3-yl)-2-cyano-3-(5-methoxypyridin-2-yl)acrylamide] | increased |  |
| Cc1ccnc(/C=C(\C#N)C(=O)N[C@@H]2CCN(c3c(Cl)cnc4[nH]c(-c5ccc(N6CCN(C)CC6)cc5)nc34)C2)c1 [Compound 13l, (R,E)-N-(1-(6-chloro-2-(4-(4-methylpiperazin-1-yl)phenyl)-3H-imidazo[4,5-b]pyridin-7-yl)pyrrolidin-3-yl)-2-cyano-3–(4-methylpyridin-2-yl)acrylamide] | excellent |  |
| CCCn1/c(=N/C(=O)c2cccc(C(N)=O)c2)[nH]c2ccccc21 [Takinib, reference compound] |  | caspase-3/7 activity [2]: significant caspase activation |
| (R)-N-(1–(5-chloro-2-((4–(4-methylpiperazin-1-yl)phenyl)amino)pyrimidin-4-yl)pyrrolidin-3-yl)acrylamide [Compound 14] |  | IC50 relative to that of the pyrimidine (6) ([1]; TAK1, compared with 6): approximately twice; IC50 [1]: 0.961 µM |

From PMC7594721, “Synthesis and biological activity of 2-cyanoacrylamide derivatives tethered to imidazopyridine as TAK1 inhibitors” (Journal of Enzyme Inhibition and Medicinal Chemistry, 2020)
